# Data reported in patent US20260001928A1 (CORTERIA PHARMACEUTICALS, priority 2022, published 2026).
# *1 amine or outer side, *2 acyl side, *3 side chain or, on linkers, in order; H or OH if unused. Where a SMILES comes first, the peptide text is derived from it. Side-chain parts run from the residue outwards. [ ]: non-standard residue; d: D form. The star is where a group is joined. C20 diacid = O=C(O)CCCCCCCCCCCCCCCCCCC(=O)*; γGlu = O=C(O)[C@H](CCC(=O)[*:2])N[*:1]; Decanoyl = CCCCCCCCCC(=O)*; Pentanoyl = CCCCC(=O)*; AEEA = NCCOCCOCC(=O)O; Aib = CC(C)(N)C(=O)O
# Assays:
# [1] = Chemical stability in buffer (pH 7.4 / pH 4.5), % purity loss; format: physicochemical; conditions: 40° C. vs 5° C., 14 or 28 days; for Buffer stability pH 7.4 % purity loss: 100 mM phosphate buffer pH 7.4
# How it was run: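 Compounds dissolved at 10 mg/mL target in 100 mM phosphate (pH 7.4) or 100 mM acetate (pH 4.5) buffer for 1 h at room temperature, then centrifuged. Diluted supernatant stored at 5 °C or 40 °C for 14 or 28 days; % purity loss by LC-UV.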
# CFR1R receptor = target: T1, CFR1R receptor (Homo sapiens, UniProt P34998); assay: Activity at anti-target CFR1R receptor, cAMP assay in CRF1R-overexpression CHO-K1 cells; format: cell-based; conditions: 100% = Sauvagine at 100 nM
# T1 construct: host or cells: CHO-K1 (clone 2)
# T1 sequence (P34998 24-415): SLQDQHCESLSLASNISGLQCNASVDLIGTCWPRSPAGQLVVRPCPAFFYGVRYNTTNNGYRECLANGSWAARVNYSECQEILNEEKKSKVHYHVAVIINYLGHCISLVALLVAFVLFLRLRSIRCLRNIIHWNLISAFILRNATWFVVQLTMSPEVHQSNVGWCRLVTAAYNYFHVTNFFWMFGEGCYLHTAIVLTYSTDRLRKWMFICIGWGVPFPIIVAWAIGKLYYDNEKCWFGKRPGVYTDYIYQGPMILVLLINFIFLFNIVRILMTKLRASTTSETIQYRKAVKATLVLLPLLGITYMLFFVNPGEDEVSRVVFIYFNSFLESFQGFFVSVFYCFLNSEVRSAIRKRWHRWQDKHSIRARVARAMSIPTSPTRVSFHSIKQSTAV
# How it was run: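 Clone 2 cells were cultured in F12 (Hams)/10% FBS/400 μg/ml G418 at 37° C./5% CO2, frozen in medium with 10% DMSO, and thawed vials used. The protocol followed the TeloHAEC procedure, with 4000 cells/well final and Sauvagine at 100 nM defining 100% activation.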
# [2] = Pharmacokinetics in male Sprague Dawley rats after subcutaneous administration; format: in vivo; conditions: plasma, rat
# human CRF2a receptor = target: T2, human CRF2a receptor (Homo sapiens, UniProt Q13324); assay: Activity at human CRF2a receptor, cAMP functional assay in TeloHEAC cells; format: cell-based; conditions: TeloHEAC cells stably expressing human CRF2a receptor, relative to urocortin 2 (100 nM = 100%)
# T2 construct: expressed in transfected cells; host or cells: TeloHEAC cells
# T2 sequence (Q13324 1-411): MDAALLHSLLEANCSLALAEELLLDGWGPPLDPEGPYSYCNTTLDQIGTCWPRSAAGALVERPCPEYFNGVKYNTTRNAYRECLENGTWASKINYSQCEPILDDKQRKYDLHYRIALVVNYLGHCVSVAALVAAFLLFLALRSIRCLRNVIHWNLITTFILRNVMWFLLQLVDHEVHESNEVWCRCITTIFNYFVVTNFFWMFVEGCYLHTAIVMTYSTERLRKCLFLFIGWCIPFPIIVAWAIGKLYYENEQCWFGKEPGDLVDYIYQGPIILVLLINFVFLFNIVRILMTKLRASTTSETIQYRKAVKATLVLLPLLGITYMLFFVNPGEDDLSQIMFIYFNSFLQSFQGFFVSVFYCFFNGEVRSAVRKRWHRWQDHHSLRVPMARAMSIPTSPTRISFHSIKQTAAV
# How it was run: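 cAMP accumulation was measured by HTRF 665/620 nm ratio after 30 min at 37° C compound exposure (16 twofold dilutions) of CRF2a-expressing TeloHEAC cells, 10000/well, in HEPES-buffered HBSS plus IBMX. Activity was normalised to urocortin 2 at 100 nM (100%), and EC50 was the concentration giving half-maximal activation.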
# [3] = Pharmacokinetics in male Sprague Dawley rats after subcutaneous administration; format: in vivo; conditions: plasma, rat, SC
# [4] = In vitro subcutaneous tissue supernatant (SCts) stability and metabolite identification, rat; format: in vitro ADME; set-up: remaining at 2 h: dose or concentration left out as unconfirmed; conditions: male, Sprague Dawley; rat subcutaneous tissue supernatant (SCts), 37° C, 2 h
# Sprague Dawley rats = assay: Effect on systolic blood pressure, telemetry in Sprague Dawley rats; format: in vivo, rat; conditions: 0.1 mg/kg SC; for Systolic blood pressure (Mean) % change from baseline, 8 h / Systolic blood pressure (Mean) % change from baseline, 12 h / Systolic blood pressure (Mean) % change from baseline, 24 h: n=2; for Duration of action: last time point with an effect on BP still observed
# How it was run: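 Sprague Dawley rats with abdominal-aorta telemetry catheters, recovered ≥10 days, received 0.1 mg/kg SC of compound or vehicle. Systolic pressure recorded 1 h pre-dose as baseline, then continuously up to 48 hours, expressed as % change from baseline; duration of action is last time point with a BP effect (n=2).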
SMILES,Buffer stability pH 7.4 % purity loss [1],Emax (% I) (CFR1R receptor),"AUC(0-t) ([2]; IV, 0.025 mg/kg)","half-life ([2]; IV, 0.025 mg/kg)",EC50 (human CRF2a receptor),AUC(0-t) ([3]; 0.05 mg/kg),Cmax ([3]; 0.05 mg/kg),Tmax ([3]; 0.05 mg/kg),half-life ([3]; 0.05 mg/kg),remaining at 2 h [4],"Systolic blood pressure (Mean) % change from baseline, 8 h (Sprague Dawley rats)","Systolic blood pressure (Mean) % change from baseline, 12 h (Sprague Dawley rats)","Systolic blood pressure (Mean) % change from baseline, 24 h (Sprague Dawley rats)",Duration of action (Sprague Dawley rats),further results
CCCCC(=O)N[C@H](C(=O)N[C@@H](CC(C)C)C(=O)N[C@@H](CO)C(=O)N[C@@H](CC(C)C)C(=O)N[C@@H](CC(=O)O)C(=O)N[C@@H](C(=O)N1CCC[C@H]1C(=O)N[C@H](C(=O)N[C@@H](CCCCN)C(=O)N[C@@H](CC(C)C)C(=O)N[C@@H](CCCCNC(=O)CC[C@H](NC(=O)CCCCCCCCCCCCCCCCCCC(=O)O)C(=O)O)C(=O)N[C@@H](CCCCN)C(=O)N[C@H](C(=O)N[C@@H](CC(C)C)C(=O)N[C@@H](CC(C)C)C(=O)N[C@@H](CCC(=O)O)C(=O)N[C@@H](CCC(N)=O)C(=O)N[C@@H](CCC(=O)O)C(=O)N[C@@H](CCCCN)C(=O)N[C@@H](CCC(N)=O)C(=O)N[C@@H](CCCCN)C(=O)N[C@@H](C)C(=O)N[C@@H](CCC(N)=O)C(=O)N[C@@H](CCCNC(=N)N)C(=O)N[C@@H](CCC(=O)O)C(=O)N[C@@H](CCC(N)=O)C(=O)N[C@@H](C)C(=O)N[C@@H](CCC(=O)O)C(=O)N[C@H](C(=O)N[C@@H](CC(N)=O)C(=O)NC(C)(C)C(=O)N[C@@H](CCC(N)=O)C(=O)N[C@H](C(=O)N[C@@H](CC(C)C)C(=O)N[C@@H](C)C(=O)N[C@@H](CCC(N)=O)C(=O)N[C@H](C(N)=O)C(C)C)[C@@H](C)CC)[C@@H](C)O)[C@@H](C)CC)[C@@H](C)CC)C(C)C)C(C)C [compound 222] (Pentanoyl-VLSLD[dV]PIKLK([γGlu-C20 diacid])KILLEQEKQKAQREQAETN[Aib]QILAQV-NH2),0.0/Not Tested %,50 % I,3320 ng·h/mL,7 h,0.14 nM,2890 ng·h/mL,113 ng/mL,8 h,12 h,62%,–,–,–,–,–
CCCCC(=O)N[C@H](C(=O)N[C@@H](CC(C)C)C(=O)N[C@@H](CO)C(=O)N[C@@H](CC(C)C)C(=O)N[C@@H](CC(=O)O)C(=O)N[C@@H](C(=O)N1CCC[C@H]1C(=O)N[C@H](C(=O)N[C@@H](CCCCN)C(=O)N[C@@H](CC(C)C)C(=O)N[C@@H](CCCCNC(=O)CC[C@H](NC(=O)CCCCCCCCCCCCCCCCCCC(=O)O)C(=O)O)C(=O)N[C@@H](CCCCN)C(=O)N[C@H](C(=O)N[C@@H](CC(C)C)C(=O)N[C@@H](CC(C)C)C(=O)N[C@@H](CCC(=O)O)C(=O)N[C@@H](CCC(N)=O)C(=O)N[C@@H](CCC(=O)O)C(=O)N[C@@H](CCCCN)C(=O)N[C@@H](CCC(N)=O)C(=O)N[C@@H](CCCCN)C(=O)N[C@@H](CCCCN)C(=O)N[C@@H](CCC(N)=O)C(=O)N[C@@H](CCCNC(=N)N)C(=O)N[C@@H](CCC(=O)O)C(=O)N[C@@H](CCC(N)=O)C(=O)N[C@@H](C)C(=O)N[C@@H](CCC(=O)O)C(=O)N[C@H](C(=O)N[C@@H](CC(N)=O)C(=O)NC(C)(C)C(=O)N[C@@H](CCC(N)=O)C(=O)N[C@H](C(=O)N[C@@H](CC(C)C)C(=O)N[C@@H](C)C(=O)N[C@@H](CCC(N)=O)C(=O)N[C@H](C(N)=O)C(C)C)[C@@H](C)CC)[C@@H](C)O)[C@@H](C)CC)[C@@H](C)CC)C(C)C)C(C)C [compound 219] (Pentanoyl-VLSLD[dV]PIKLK([γGlu-C20 diacid])KILLEQEKQKKQREQAETN[Aib]QILAQV-NH2),−2.1/Not Tested %,48 % I,–,–,0.16 nM,–,–,–,–,71%,−10%,−13%,−10%,>24 h,"AUC(0-t) ([2]; IV, 0.05 mg/kg): 5320 ng·h/mL; half-life ([2]; IV, 0.05 mg/kg): 6 h; Tmax ([2]; SC, 0.1 mg/kg): 8 h; half-life ([2]; SC, 0.1 mg/kg): 15 h; AUC(0-t) ([3]; 0.1 mg/kg): 4520 ng·h/mL; Cmax ([3]; 0.1 mg/kg): 156 ng/mL"
CCCCC(=O)N[C@H](C(=O)N[C@@H](CC(C)C)C(=O)N[C@@H](CO)C(=O)N[C@@H](CC(C)C)C(=O)N[C@@H](CC(=O)O)C(=O)N[C@@H](C(=O)N1CCC[C@H]1C(=O)N[C@H](C(=O)N[C@@H](CCCCN)C(=O)N[C@@H](CC(C)C)C(=O)N[C@@H](CCCCNC(=O)COCCOCCNC(=O)CC[C@H](NC(=O)CCCCCCCCCCCCCCCCCCC(=O)O)C(=O)O)C(=O)N[C@@H](CCCCN)C(=O)N[C@H](C(=O)N[C@@H](CC(C)C)C(=O)N[C@@H](CC(C)C)C(=O)N[C@@H](CCC(=O)O)C(=O)N[C@@H](CCC(N)=O)C(=O)N[C@@H](CCC(=O)O)C(=O)N[C@@H](CCCCN)C(=O)N[C@@H](CCC(N)=O)C(=O)N[C@@H](CCCCN)C(=O)N[C@@H](CCCCN)C(=O)N[C@@H](CCC(N)=O)C(=O)N[C@@H](CCCNC(=N)N)C(=O)N[C@@H](CCC(=O)O)C(=O)N[C@@H](CCC(N)=O)C(=O)N[C@@H](C)C(=O)N[C@@H](CCC(=O)O)C(=O)N[C@H](C(=O)N[C@@H](CC(N)=O)C(=O)NC(C)(C)C(=O)N[C@@H](CCC(N)=O)C(=O)N[C@H](C(=O)N[C@@H](CC(C)C)C(=O)N[C@@H](C)C(=O)N[C@@H](CCC(N)=O)C(=O)N[C@H](C(N)=O)C(C)C)[C@@H](C)CC)[C@@H](C)O)[C@@H](C)CC)[C@@H](C)CC)C(C)C)C(C)C [compound 235] (Pentanoyl-VLSLD[dV]PIKLK([AEEA-γGlu-C20 diacid])KILLEQEKQKKQREQAETN[Aib]QILAQV-NH2),0.0%,27 % I,4510 ng·h/mL,8 h,0.16 nM,–,–,–,–,66%,−8%,−7%,−12%,>24 h,Buffer stability pH 4.5 % purity loss ([1]; 100 mM acetate buffer pH 4.5): −1.6%; EC50 (CFR1R receptor; cAMP): > 250 nM
CCCCCCCCCC(=O)N[C@H](C(=O)N[C@@H](CC(C)C)C(=O)N[C@@H](CO)C(=O)N[C@@H](CC(C)C)C(=O)N[C@@H](CC(=O)O)C(=O)N[C@@H](C(=O)N1CCC[C@H]1C(=O)N[C@H](C(=O)N[C@@H](CCCCN)C(=O)N[C@@H](CC(C)C)C(=O)N[C@@H](CCCCNC(=O)CC[C@H](NC(=O)CCCCCCCCCCCCCCCCCCC(=O)O)C(=O)O)C(=O)N[C@@H](CCCCN)C(=O)N[C@H](C(=O)N[C@@H](CC(C)C)C(=O)N[C@@H](CC(C)C)C(=O)N[C@@H](CCC(=O)O)C(=O)N[C@@H](CCC(N)=O)C(=O)N[C@@H](CCC(=O)O)C(=O)N[C@@H](CCCCN)C(=O)N[C@@H](CCC(N)=O)C(=O)N[C@@H](CCCCN)C(=O)N[C@@H](CCCCN)C(=O)N[C@@H](CCC(N)=O)C(=O)N[C@@H](CCCNC(=N)N)C(=O)N[C@@H](CCC(=O)O)C(=O)N[C@@H](CCC(N)=O)C(=O)N[C@@H](C)C(=O)N[C@@H](CCC(=O)O)C(=O)N[C@H](C(=O)N[C@@H](CC(N)=O)C(=O)NC(C)(C)C(=O)N[C@@H](CCC(N)=O)C(=O)N[C@H](C(=O)N[C@@H](CC(C)C)C(=O)N[C@@H](C)C(=O)N[C@@H](CCC(N)=O)C(=O)N[C@H](C(N)=O)C(C)C)[C@@H](C)CC)[C@@H](C)O)[C@@H](C)CC)[C@@H](C)CC)C(C)C)C(C)C [compound 223] (Decanoyl-VLSLD[dV]PIKLK([γGlu-C20 diacid])KILLEQEKQKKQREQAETN[Aib]QILAQV-NH2),−0.1/Not Tested %,58 % I,1920 ng·h/mL,2.8 h,0.08 nM,698 ng·h/mL,67 ng/mL,2 h,6.5 h,79%,–,–,–,–,–
